From ChEMBL document CHEMBL1127890, “Syntheses of new bacteriochlorins and their antitumor activity” (1994)

Legend:
Format in all cases: functional
Conditions in all cases: route intravenous
Mus musculus [1] = test: In vivo tumor response 3 hour after post i.v. injection at a dose of 5 mg/kg in DBA/2 mice having SMT/F tumor after 1-2 days
Mus musculus [2] = test: In vivo tumor response 3 hour after post i.v. injection at a dose of 5 mg/kg in DBA/2 mice having SMT/F tumor after 21 days
Mus musculus [3] = test: In vivo tumor response 3 hour after post i.v. injection at a dose of 5 mg/kg in DBA/2 mice having SMT/F tumor after 30 days
Mus musculus [4] = test: In vivo tumor response 3 hour after post i.v. injection at a dose of 5 mg/kg in DBA/2 mice having SMT/F tumor after 7 days

Compound	Tumor response (Mus musculus [1]) [%]	Tumor response (Mus musculus [2]) [%]	Tumor response (Mus musculus [3]) [%]	Tumor response (Mus musculus [4]) [%]
CCC1(O)c2cc3nc4c(c5nc(cc6[nH]c(cc([nH]2)C1(C)O)c(C=O)c6C)[C@@H](C)[C@@H]5CCC(=O)OC)C(=O)OC(=O)C4=C3C (some centres undefined)	0	–	–	–
CCOC(=O)C(N)CCCCN1C(=O)C2=C(C)c3cc4[nH]c(cc5[nH]c(cc6nc(c(c2n3)C1=O)[C@@H](CCC(=O)OC)[C@@H]6C)c(C)c5C=O)C(C)(O)C4(O)CC (some centres undefined)	100	20	20	100
CCC1(O)c2cc3nc4c(c5nc(cc6[nH]c(cc([nH]2)C1(C)O)c(C=O)c6C)[C@@H](C)[C@@H]5CCC(=O)NC(CC(=O)OC(C)(C)C)C(=O)OC(C)(C)C)C(=O)OC(=O)C4=C3C (some centres undefined)	100	80	80	100
